The values below are quoted from earlier work in patent US20230210762A1, “TRANSDERMAL DRUG DELIVERY DEVICES HAVING PSILOCYBIN, LYSERGIC ACID DI[…] 3,4-METHYLENEDIOXYMETHA[…] MICROPROTRUSIONS” (Emergex USA Corporation, priority 2020, published 2023).

Read-outs that look alike come from different tables or passages of the source.

One may read the half-life as how long it takes for the measured level to halve.

Assay in data set [1]: not given
The source holds these as a separate data set.

Assay in data set [2]: not given
This is another data set of the same source.

For data set [3] the following is noted: psilocybin administered orally to rats.

Take `CN(C)CCc1c[nH]c2cccc(OP(=O)(O)O)c12` [psilocybin, 3-[2-(demethylamino)ethyl-1H-indol-4-yl] dihydrogen phosphate]: the “ingested psilocybin absorbed through the stomach and intestine” value (oral, studies in animals) was “about 50%”. Besides, the “detected in urine, time after ingestion” value (urine) is 7 days. For the same compound, under “via urine, bile and feces”, the “time within which most of the drug is eliminated” value was at most 8 h. Besides, for the setting “within 24 hours”, the “absorbed psilocybin excreted in the bile and feces” value is listed as 15-20%; the “absorbed psilocybin excreted into the urine” value is given as “about 65%”. Moreover, the solubility in water entry in data set [1] is on record as “soluble”. For the same compound, the half-life in data set [2] (administered intravenously) is 1.24 ± 0.327 h. Also, in data set [2] (administered orally), the half-life was 2.72 ± 1.07 h. For the same compound, the bioavailability entry in data set [2] (psilocybin ingested orally) is recorded as “about 50%”.

`CN(C)CCc1c[nH]c2cccc(O)c12` [psilocin]: the “time until psilocin is detectable in plasma” value in data set [2] (after administration of the parent compound psilocybin) was at most 20 min. In data set [3], the “time to maximum plasma levels” value was “approximately 90 minutes” and the “total volume of psilocin absorbed from the digestive tract” value is recorded as “approximately 50%”.
